The experiment concerns the target T1, Neutrophil elastase (Homo sapiens) (UniProt P08246).
T1 sequence (whole entry): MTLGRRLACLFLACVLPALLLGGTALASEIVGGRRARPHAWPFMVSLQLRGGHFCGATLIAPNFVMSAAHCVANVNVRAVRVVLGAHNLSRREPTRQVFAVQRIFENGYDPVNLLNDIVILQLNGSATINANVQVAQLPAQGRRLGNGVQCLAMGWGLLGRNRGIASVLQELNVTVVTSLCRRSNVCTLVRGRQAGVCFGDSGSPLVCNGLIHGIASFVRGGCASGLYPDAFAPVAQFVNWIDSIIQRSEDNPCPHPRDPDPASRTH
The experiment is described as follows: Bimolecular rate constant for the inhibition of human leukocyte elastase.

We go through four molecules from ChEMBL document CHEMBL1149971, “A general approach toward the design of inhibitors of serine proteinases: inhibition of human leukocyte elastase by substituted dihydrouracils” (Bioorg Med Chem Lett, 1992).

In the case of `O=C1NCC(Cc2ccccc2)C(=O)N1OS(=O)(=O)/C=C/c1ccccc1` (centres undefined), the Bimolecular inhibition rate constant (kobs/[I]) was determined as 480 M⁻¹ s⁻¹. With `O=C1CC(Cc2ccccc2)NC(=O)N1OS(=O)(=O)/C=C/c1ccccc1` (centres undefined) the figure was 1980 M⁻¹ s⁻¹; with `CS(=O)(=O)ON1C(=O)CC(Cc2ccccc2)NC1=O` (centres undefined), 800 M⁻¹ s⁻¹; with `CS(=O)(=O)ON1C(=O)NCC(Cc2ccccc2)C1=O` (centres undefined), 3310 M⁻¹ s⁻¹.
